# Test results reported in ChEMBL document CHEMBL1201862, “PubChem BioAssay data set” (2004).
#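 Five compound concentrations were applied to cells in 96-well plates for 48 hours; endpoints were derived by simple linear interpolation of the resulting dose-response curve. GI50 marks 50% less growth.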 Calls of active or inactive are those of the source. No stated cut-off is given here; in the data, active = GI50 up to about 1.1 µM and inactive = higher.
# Experiments:
# Experiment in all cases: NCI tumour cell line growth inhibition, 48 h
# HOP-62 = test system: HOP-62
# SK-MEL-5 = test system: SK-MEL-5
# KM12 = test system: KM12
# OVCAR-8 = test system: OVCAR-8
# LOX IMVI = test system: LOX IMVI
# Hs-578T = test system: Hs-578T
# SR = test system: SR
# T47D = test system: T47D
# UACC-257 = test system: UACC-257
# EKVX = test system: EKVX
# SW-620 = test system: SW-620
# HCT-15 = test system: HCT-15
# NCI/ADR-RES = test system: NCI/ADR-RES
# NCI-H460 = test system: NCI-H460
# MDA-MB-231 = test system: MDA-MB-231
# OVCAR-4 = test system: OVCAR-4
# PC-3 = test system: PC-3
# CAKI-1 = test system: CAKI-1
# SNB-19 = test system: SNB-19
# SK-MEL-2 = test system: SK-MEL-2
# HOP-92 = test system: HOP-92
# MOLT-4 = test system: MOLT-4
# ACHN = test system: ACHN
# SK-MEL-28 = test system: SK-MEL-28
# M14 = test system: M14
# CCRF-CEM = test system: CCRF-CEM
# 786-0 = test system: 786-0
# MDA-MB-435 = test system: MDA-MB-435
# UO-31 = test system: UO-31
# OVCAR-3 = test system: OVCAR-3
# SF-295 = test system: SF-295
# HL-60 = test system: HL-60
# SNB-75 = test system: SNB-75
# HCC 2998 = test system: HCC 2998
# IGROV-1 = test system: IGROV-1
# A549 = test system: A549
# MCF7 = test system: MCF7
# UACC-62 = test system: UACC-62
# RPMI-8226 = test system: RPMI-8226
# OVCAR-5 = test system: OVCAR-5
# SK-OV-3 = test system: SK-OV-3
# SF-539 = test system: SF-539
# SF-268 = test system: SF-268
# U-251 = test system: U-251
# MDA-N = test system: MDA-N
# DU-145 = test system: DU-145
# A498 = test system: A498
# HT-29 = test system: HT-29
# K562 = test system: K562
# COLO 205 = test system: COLO 205
# TK-10 = test system: TK-10
# SN12C = test system: SN12C
# BT-549 = test system: BT-549
# HCT-116 = test system: HCT-116
# Malme-3M = test system: Malme-3M
# NCI-H226 = test system: NCI-H226
# RXF 393 = test system: RXF 393
# NCI-H23 = test system: NCI-H23
# NCI-H522 = test system: NCI-H522
compound,measurement,setting,value
O=C(c1ccccc1)c1ccc(N2C(=O)/C(=C/Cc3ccco3)N=C2c2ccccc2)c(N2C(=O)/C(=C/Cc3ccco3)N=C2c2ccccc2)c1,GI50,HOP-62,40 µM (inactive)
same,GI50,SK-MEL-5,26.1 µM (inactive)
same,GI50,KM12,28.4 µM (inactive)
same,GI50,OVCAR-8,29.3 µM (inactive)
same,GI50,LOX IMVI,24.2 µM (inactive)
same,GI50,Hs-578T,25.8 µM (inactive)
same,GI50,SR,28.6 µM (inactive)
same,GI50,T47D,36.4 µM (inactive)
same,GI50,UACC-257,47.1 µM (inactive)
same,GI50,EKVX,81.5 µM (inactive)
same,GI50,SW-620,39.8 µM (inactive)
same,GI50,HCT-15,45 µM
same,GI50,NCI/ADR-RES,33.8 µM (inactive)
same,GI50,NCI-H460,36.6 µM (inactive)
same,GI50,MDA-MB-231,37.9 µM (inactive)
same,GI50,OVCAR-4,39.9 µM (inactive)
same,GI50,PC-3,39.8 µM (inactive)
same,GI50,CAKI-1,67.5 µM (inactive)
same,GI50,SNB-19,47.4 µM (inactive)
same,GI50,SK-MEL-2,25.5 µM (inactive)
same,GI50,HOP-92,97.1 µM (inactive)
same,GI50,MOLT-4,18.8 µM (inactive)
same,GI50,ACHN,33 µM (inactive)
same,GI50,SK-MEL-28,> 100 µM (inactive)
same,GI50,M14,39.9 µM (inactive)
same,GI50,CCRF-CEM,11.1 µM (inactive)
same,GI50,786-0,45.7 µM (inactive)
same,GI50,MDA-MB-435,29.2 µM (inactive)
same,GI50,UO-31,39 µM (inactive)
same,GI50,OVCAR-3,21.6 µM (inactive)
same,GI50,SF-295,30 µM (inactive)
same,GI50,HL-60,15.3 µM (inactive)
same,GI50,SNB-75,28.1 µM (inactive)
same,GI50,HCC 2998,36.9 µM (inactive)
same,GI50,IGROV-1,39.2 µM (inactive)
same,GI50,A549,35.8 µM (inactive)
same,GI50,MCF7,52 µM (inactive)
same,GI50,UACC-62,26.5 µM (inactive)
same,GI50,RPMI-8226,27.8 µM (inactive)
same,GI50,OVCAR-5,> 100 µM (inactive)
same,GI50,SK-OV-3,30.5 µM (inactive)
same,GI50,SF-539,16.2 µM (inactive)
same,GI50,SF-268,32.1 µM (inactive)
same,GI50,U-251,18.8 µM (inactive)
same,GI50,MDA-N,60.3 µM (inactive)
same,GI50,DU-145,30 µM (inactive)
same,GI50,A498,51.5 µM (inactive)
same,GI50,HT-29,43.4 µM (inactive)
same,GI50,K562,64.7 µM (inactive)
same,GI50,COLO 205,38.6 µM (inactive)
same,GI50,TK-10,55.8 µM (inactive)
same,GI50,SN12C,71.6 µM (inactive)
same,GI50,BT-549,35.6 µM (inactive)
same,GI50,HCT-116,40.2 µM (inactive)
O=C1C(NS(=O)(=O)c2ccccc2)=C(n2ccnc2)C(=O)c2ccccc21,GI50,Malme-3M,96.4 µM (inactive)
same,GI50,HOP-62,> 100 µM (inactive)
same,GI50,SK-MEL-5,> 100 µM (inactive)
same,GI50,KM12,> 100 µM (inactive)
same,GI50,OVCAR-8,> 100 µM (inactive)
same,GI50,LOX IMVI,> 100 µM (inactive)
same,GI50,Hs-578T,> 100 µM (inactive)
same,GI50,SR,> 100 µM (inactive)
same,GI50,T47D,> 100 µM (inactive)
same,GI50,UACC-257,> 100 µM (inactive)
same,GI50,EKVX,> 100 µM (inactive)
same,GI50,SW-620,> 100 µM (inactive)
same,GI50,HCT-15,> 100 µM
same,GI50,NCI-H226,> 100 µM (inactive)
same,GI50,NCI/ADR-RES,> 100 µM (inactive)
same,GI50,NCI-H460,> 100 µM (inactive)
same,GI50,MDA-MB-231,> 100 µM (inactive)
same,GI50,OVCAR-4,> 100 µM (inactive)
same,GI50,PC-3,> 100 µM (inactive)
same,GI50,CAKI-1,> 100 µM (inactive)
same,GI50,SNB-19,> 100 µM (inactive)
same,GI50,SK-MEL-2,> 100 µM (inactive)
same,GI50,RXF 393,> 100 µM (inactive)
same,GI50,HOP-92,> 100 µM (inactive)
same,GI50,MOLT-4,> 100 µM (inactive)
same,GI50,NCI-H23,> 100 µM (inactive)
same,GI50,ACHN,> 100 µM (inactive)
same,GI50,SK-MEL-28,> 100 µM (inactive)
same,GI50,M14,> 100 µM (inactive)
same,GI50,CCRF-CEM,> 100 µM (inactive)
same,GI50,786-0,> 100 µM (inactive)
same,GI50,MDA-MB-435,> 100 µM (inactive)
same,GI50,UO-31,> 100 µM (inactive)
same,GI50,NCI-H522,> 100 µM (inactive)
same,GI50,OVCAR-3,> 100 µM (inactive)
same,GI50,SF-295,> 100 µM (inactive)
same,GI50,HL-60,> 100 µM (inactive)
same,GI50,SNB-75,4.44 µM (inactive)
same,GI50,IGROV-1,> 100 µM (inactive)
same,GI50,A549,> 100 µM (inactive)
same,GI50,MCF7,> 100 µM (inactive)
same,GI50,UACC-62,> 100 µM (inactive)
same,GI50,RPMI-8226,> 100 µM (inactive)
same,GI50,OVCAR-5,> 100 µM (inactive)
same,GI50,SK-OV-3,> 100 µM (inactive)
same,GI50,SF-539,> 100 µM (inactive)
same,GI50,SF-268,> 100 µM (inactive)
same,GI50,U-251,> 100 µM (inactive)
same,GI50,MDA-N,> 100 µM (inactive)
same,GI50,DU-145,> 100 µM (inactive)
same,GI50,HT-29,> 100 µM (inactive)
same,GI50,K562,> 100 µM (inactive)
same,GI50,COLO 205,> 100 µM (inactive)
same,GI50,TK-10,24.7 µM (inactive)
same,GI50,SN12C,> 100 µM (inactive)
same,GI50,BT-549,> 100 µM (inactive)
same,GI50,HCT-116,> 100 µM (inactive)
